“Also recorded” adds a separate entry of the source.
What was measured:
[1] = tested on: 7×TCF/LEF response elements (Super 8×TOPFlash reporter); assay: Promoter activation assay, Super 8×TOPFlash luciferase reporter in ATDC5 cells stimulated with Wnt3a; type: cell-based, mouse; settings: peptide at 300 ng/ml; 10 or 100 ng/mL recombinant Wnt3a; 24 h
Description: Results were normalized by-cotransfecting each of the above plasmid with the tyrosine kinase-renilla luciferase plasmid (Promega). Transfections were carried out using the Dharmafect kb transfection reagent (Fisher Scientific). Briefly, reporter plasmids and transfection reagent were diluted in serum-free medium, and then the diluted Dharmafect kb was added to the plasmids for an incubation time of 10 minutes at room temperature. During that time, cells were rinsed with PBS and were placed in fresh maintenance medium. When incubation was over, the mixture of transfection reagent-plasmids was dispensed in each well. Stimulations (with Wnt3a and/or PEP16 and/or PEP16bis) were carried out the next day.

ATDC5 micromasses [2] = assay: Glycosaminoglycan/proteoglycan quantification (Alcian blue staining) in ATDC5 micromasses; type: cell-based, mouse; settings: for proteoglycans deposition in the extracellular matrix (Alcian blue, absorbance 650 nm): 300 ng/ml, 14 days, vs control cells
Description: (§1) Mouse chondrogenic ATDC5 cells (cartilage-specific chondrogenic strain) were cultured until confluent in maintenance medium containing 1:1 Dulbecco's modified Eagle's medium (DMEM): Ham's F-12 mix (Gibco) supplemented with 1% antibiotic (AB, Penicillin-Streptomycin, Gibco), 5% fetal bovine serum (FBS) (Gibco) and enriched with […] human transferrin (Sigma) and 30 nM sodium selenite (Sigma). Cells were trypsinized, washed and resuspended at 2.10^7 cells/mL in a chondrogenic medium made of maintenance medium enriched by 1× of ITS premix (resulting in 10 μg/mL insulin, 10 μg/mL human transferrin and 30 nM sodium selenite) (Life technologies). One droplet of cell suspension (10 μL) was placed at the center of each well of a 24-well plate. Cells were allowed to adhere for 2 h at 37° C., followed by addition of 500 μL chondrogenic medium supplemented. […] After 14 days, induction of hypertrophic differentiation and mineralization was induced by the mineralization medium made of α-MEM medium (Gibco) containing 1% AB, 5% FBS, 5 μg/ml human transferrin, 1× of ITS premix, 50 μg/ml ascorbic acid-2-phosphate (AA) (Sigma) and 10 mM β-glycerophosphate (BGP) (Sigma). […] Micromasses were collected at time points 1, 7, 14 21 and 28 days. Each time point was processed in three technical replicates. The medium was changed every other day. […] The genes of interest were articular chondrocyte markers (aggrecan, type 2 collagen (col2a1)), YAP/TAZ target genes (ctgf, ankrd) and pro-catabolic enzymes involved in the pathophysiology of OA (mmp3, mmp13).
Micromasses were washed with PBS and fixed with 95% ice-cold ethanol for 30 min at 4° C. for staining. After washing with distilled water, micromasses were stained with Alcian Blue (0.1% Alcian Blue 8GX, (Sigma)), washed three times with distilled water to remove unbound staining and air-dried.

CamKII pathway = assay: Western blot of CamKII pathway activation in ATDC5 micromasses; type: cell-based, mouse; settings: 300 ng/mL; day 21 and 28
Description: (§2) Mouse chondrogenic ATDC5 cells (cartilage-specific chondrogenic strain) were cultured until confluent in maintenance medium containing 1:1 Dulbecco's modified Eagle's medium (DMEM): Ham's F-12 mix (Gibco) supplemented with 1% antibiotic (AB, Penicillin-Streptomycin, Gibco), 5% fetal bovine serum (FBS) (Gibco) and enriched with […] human transferrin (Sigma) and 30 nM sodium selenite (Sigma). Cells were trypsinized, washed and resuspended at 2.10^7 cells/mL in a chondrogenic medium made of maintenance medium enriched by 1× of ITS premix (resulting in 10 μg/mL insulin, 10 μg/mL human transferrin and 30 nM sodium selenite) (Life technologies). One droplet of cell suspension (10 μL) was placed at the center of each well of a 24-well plate. Cells were allowed to adhere for 2 h at 37° C., followed by addition of 500 μL chondrogenic medium supplemented. […] After 14 days, induction of hypertrophic differentiation and mineralization was induced by the mineralization medium made of α-MEM medium (Gibco) containing 1% AB, 5% FBS, 5 μg/ml human transferrin, 1× of ITS premix, 50 μg/ml ascorbic acid-2-phosphate (AA) (Sigma) and 10 mM β-glycerophosphate (BGP) (Sigma). […] Micromasses were collected at time points 1, 7, 14 21 and 28 days. Each time point was processed in three technical replicates. The medium was changed every other day. […]

ATDC5 micromasses [3] = assay: qRT-PCR relative expression of genes of interest in ATDC5 micromass culture (chondrogenesis); type: cell-based, mouse; settings: for MMP3 expression / YAP/TAZ target genes (CTGF) expression / articular chondrocyte extracellular matrix genes (type II collagen and aggrecan) expression: 300 ng/ml, differentiated 14 days with ITS, D14 vs CTL
Description: as §1
(§3) Total RNA was isolated using the Nucleospin RNA II kit (Macherey-Nagel) and reverse-transcribed using the MMLV reverse transcriptase (Thermo Fisher Scientific) following the manufacturers' instructions. The iTaq SYBR green qPCR master mix (BioRad) was used to assess the mRNA expression of target genes of interest. Primer sequences can be provided upon request. The following PCR conditions were used: 1 minute at 95° C., 40 cycles of 15 sec of denaturation at 95° C., followed by 1 minute of annealing-elongation at 60° C. Melting curve analysis was performed to determine the amplification of the specific product. Results were expressed using the comparative threshold method and were normalized to housekeeping gene PPIA (Peptidylprolyl Isomerase A) mRNA level for ATDC5 cells and MACs, or normalized to housekeeping gene S29 (ribosomal protein S29) mRNA level for MC3T3-E1 cells. The Via7 real-time PCR system (Thermo Fisher Scientific) was used for qRT-PCR measurements.
(§4) ATDC5 cells were cultured as micromasses and differentiated during 14 days using ITS as mentioned previously. […] RNA was isolated and qPCR were performed for different target genes, i.e. type II collagen and aggrecan (articular chondrocyte extracellular matrix), CTGF (YAP/TAZ target genes, indicators of the pathway activity) and MMP3 (cartilage degrading enzyme increased during osteoarthritis) (FIG. 15). Alcian blue staining was performed on the micromasses cultures, and biochemical quantitation was performed as previously described (FIG. 16).
as §4, with “gene, indicator” for “genes, indicators”, “17).” for “15).”, “18).” for “16).”

[4] = tested on: mouse articular chondrocytes; assay: qRT-PCR relative expression of genes of interest in mouse articular chondrocytes; type: cell-based; settings: 300 ng/mL; 12 h of stimulation
Description: Mouse articular chondrocyte (MACs) were isolated from femoral heads by enzymatic digestion of whole femoral head caps. Samples were washed three times in 1% AB/phosphate buffered saline (PBS) and incubated with 2 mg/ml pronase (Roche)/DMEM-F12 at 37° C. for 1 h at slow rotation 100 rpm followed by a 3 h incubation with 1.5 mg/ml collagenase B (Roche)/DMEM-F12 at 37° C. Cells were seeded at 1×10^6 cells/[…], and cultured for 7 to 14 days in growth medium DMEM-F12, containing 1% AB (Gibco), 10% FBS (Gibco) and 5% L-glutamine (Thermoscientific). Passage 1 cells were utilized for the experiments. The culture supernatants were then harvested in order to perform MMP13 enzymatic activity assay. The evaluation of the expression of genes of interest included articular chondrocyte markers (aggrecan, type 2 collagen (col2a1)), YAP/TAZ target genes (ankrd) and pro-catabolic enzyme involved in the pathophysiology of OA (mmp3).
as §3

Wnt/β-catenin pathway = assay: Western blot of Wnt/β-catenin pathway activation in ATDC5 micromasses; type: cell-based, mouse; settings: 300 ng/mL; day 21 and 28
Description: as §2

mouse model of OA = mouse model of OA (Zhang et al., 2020); cited from earlier work
MC3T3-E1 cells = assay: Quantification of mineralization (Alizarin Red) in MC3T3-E1 cells; type: cell-based, mouse; settings: PEP12 at 300 and 1000 ng/ml; 21 days; absorbance 405 nm
Description: Each time point was processed in three technical replicates. The medium was changed every two days.
Cells were washed with PBS and fixed with 95% ice-cold ethanol for 30 min at 4° C. for staining. After washing with distilled water, cells were stained with Alizarin Red staining (1% Alizarin Red S (Sigma)), washed three times with distilled water to remove unbound staining and air-dried. Quantification of the staining was performed by dissolving the mineral content in 800 μl of 10% acetic acid for 30 minutes. Then, the wells were scraped, the content of each well was harvested in a separate tube and vortexed for 30 seconds. Each tube was heated at 85° C. for 10 minutes, then put on ice for 5 minutes. Finally, tubes were centriguated at 13000 rpm for 15 minutes, the liquid phase was harvested and mixed with 100 μl of 10% ammonium hydroxide. Absorbance was measured at 405 nm with a spectrophotometer (Varioskan Flash, Thermo Fisher Scientific).
The mineralization level was evaluated by a biochemical assay as previously described after 21 days of differentiation culture. Results are representative of 3 experiments.

alkaline phosphatase = settings: 300 ng/ml, 1000 ng/ml; day 1 and day 21; vs CTL
Description: MC3T3-E1 cells were differentiated during 21 days as mentioned previously. […] Treated cells were compared to cells without any peptide stimulation (CTL).
We also assessed the specific alkaline phosphatase activity (μmol de para-nitrophenol/min/mg of protein). To that goal, we lysed the cells using 300 μL of a buffer containing 0.2 M Tris-Base, 1.6 mM MgCl2 pH 8.1 and 1% Triton X-100. Samples were then placed into tubes and put on ice for 30 min. During this time, we alternated periods of 30 sec vortex and 5 min on ice. Then, samples were sonicated, and centrifugated for 15 min at 13 000 g, 4° C. Supernatant was collected, and total protein concentration was evaluated using bicinchoninic acid assay.
Alkaline phosphatase activity was measured by placing the harvested supernatants in para-nitrophenyl phosphate (pNPP) solution. The alkaline phosphatase will cleave this substrate and generate para-nitrophenol (pNP).
A solution of 4 mg/mL of pNPP is prepared in buffer A (0.1 M glycine pH 10.5, 0.11% (m/v) Zinc acetate and 0.011% magnesium chloride (m/v)). […]
Absorbance is read at 410 nm on a Varioskan Flash apparatus. Alkaline phosphatase activity is calculated based on the standard curve (equation A410=a×quantity(ρNP)+b) with the following formula: activity=((A(410 nm)−b)×reaction volume)/(a×sample volume×reaction time)

[5] = 300 ng/mL, day 1, 21, 28, vs non-treated control

## DRAGKKVKRWDMKARH (PEP16bis) [mutant of PEP16, L in position 3 and 14 changed to A]
[1]
  activity of the canonical Wnt pathway in the Super TOPFlash luciferase reporter system (Firefly/renilla ratio): very similar properties (biological activity) to the initial sequence PEP16; also recorded: significantly reduce the activity
ATDC5 micromasses [2]; 300 ng/mL, Alcian blue at day 28, absorbance 650 nm
  glycosaminoglycans quantification (accumulation in the extracellular matrix): significantly increased the accumulation of glycosaminoglycans
CamKII pathway
  CamKII pathway activation (P-CamKII over total): increased the activation of the CamKII pathway
ATDC5 micromasses [3]; [5]
  expression of Ctgf, a target gene of the Hippo/YAP/TAZ pathway: efficiently reduced the expression
  relative expression level of aggrecan: favoured the induction of the expression
  relative expression level of col2a1 (type 2 collagen): favoured the induction of the expression
  relative expression level of mmp3: efficiently reduced the expression
  relative expression level of mmp13: efficiently reduced the expression
[4]
  expression of Ankrd, a target gene of the Hippo/YAP/TAZ pathway: capable of reducing the expression
Wnt/β-catenin pathway
  Wnt/β-catenin pathway activation (active protein form over total protein form): reduced in the activation of the Wnt/β-catenin pathway

## Verteporfin
Mouse model of OA
  cartilage homeostasis: allowed preserving the cartilage homeostasis

## DRIGKKVKRWDMKIRH (PEP i) [PEP16 where L in position 3 and 14 were changed to an Isoleucine]
ATDC5 micromasses [2]
  proteoglycans deposition in the extracellular matrix (Alcian blue, absorbance 650 nm): significantly increase the proteoglycans deposition
ATDC5 micromasses [3]
  MMP3 expression: significant decrease
  YAP/TAZ target genes (CTGF) expression: significant decrease
  articular chondrocyte extracellular matrix genes (type II collagen and aggrecan) expression: significant increase

## ATQKTYFRNNYN (PEP12)
MC3T3-E1 cells
  extracellular matrix mineralization (biochemical quantitation): not able to increase extracellular matrix mineralization
Alkaline phosphatase
  specific alkaline phosphatase activity: not able to increase the alkaline phosphatase activity

## DRSGKKVKRWDMKSRH (PEP s) [PEP16 where L in position 3 and 14 were changed to a Serine]
ATDC5 micromasses [2]
  proteoglycans deposition in the extracellular matrix (Alcian blue, absorbance 650 nm): significantly increase the proteoglycans deposition
ATDC5 micromasses [3]
  MMP3 expression: significant decrease
  YAP/TAZ target genes (CTGF) expression: significant decrease
  articular chondrocyte extracellular matrix genes (type II collagen and aggrecan) expression: significant increase

Source: patent publication US20230183303A1, “Therapeutic Potential of Peptides from the "Netrin-Like" Domain of the FRZB Protein” (Université de Lorraine, priority 2020, published 2023)
